Assay results from paper PMC4076215, “Nickel(II) Complex of Polyhydroxybenzaldehyde N4-Thiosemicarbazone Exhibits Anti-Inflammatory Activity by Inhibiting NF-κB Transactivation” (PLoS ONE, 2014).

Experiments:
[1] = test system: IκBα degradation/phosphorylation and p65 translocation; experiment: Immunoblot, TNFα-stimulated HeLa S3; type: cell-based, human; conditions: HeLa S3, pretreated 4 h, TNFα stimulation
Protocol: Cells were pretreated with or without of complex 5 (25 µg/ml or 50 µg/ml) for 4 h before treatment with LPS (10 ng/ml) or TNFα (10 ng/ml), for the indicated times. The cytoplasmic extracts were prepared by using the hypotonic lysis buffer (10 mM Tris, pH 7.5; 1.5 mM MgCl2; 10 mM KCl; 0.5 mM DTT; 0.5 mM PMSF; 1× Protease Inhibitor, 0.1% NP40) followed by incubation on ice for 20 min and centrifugation at 3k rpm at 4°C for 10 min. The supernatants were collected as cytoplasmic extracts. The nuclear pellets were resuspended in the whole cell lysis buffer (25 mM Tris, pH7.5; 420 mM NaCl; 1.5 mM MgCl2; 0.2 mM EDTA; 25% Glycerol; 0.5 mM DTT; 0.5 mM PMSF; 1× Protease Inhibitor). The nuclear extracts were then collected by centrifugation at 15 krpm at 4°C for 10 min. Immunoblotting was performed using antibodies against PARP (F-2, N-20), HSP90a (C-20), p65 (C-20), IκBα (C-21) and p-IκBα from Santa Cruz Biotech.
To examine whether complex 5 blocks the activation of NF-κB by another agonist, similar experiments were performed on HeLa S3 cells induced with TNFα. Similar to LPS-treated RAW264.7 cells, TNFα-induced translocation of NF-κB p65 in HeLa S3 cells (Figure 5A). […]
Figure 5 Complex 5 blocks TNFα-induced NF-κB nuclear translocation. […] Western blot signal intensities were quantified using ImageJ software. […]

COX-2 expression = experiment: TNF-induced COX-2 expression; type: cell-based; conditions: Figure S1
Protocol: In addition, we investigated the effect of complex 5 on NF-κB-mediated gene expression in response to TNFα stimulation in human HeLa S3 cells. We treated HeLa S3 cells with complex 5 for 4 h before TNFα treatment for 4 h.
Supplementary file pone.0100933.s001.pdf: Figure S1 Complex 5 inhibits TNF-induced COX2 expression. (PDF) Click here for additional data file.

SMILES: NC1=[S+][Ni-2]2([P+](c3ccccc3)(c3ccccc3)c3ccccc3)[O]c3c(O)cccc3C=[N+]2N1.[Cl-] [complex 5, {2-[(2-Carbamothiolylhydrazin-1-ylidene-[kappa]2N1,S)methyl]-6-hydroxyphenolato-[kappa]O1}(triphenylphosphine-[kappa]P)nickel(II) chloride]
- IκBα degradation and p65 translocation (immunoblot) [1]: dramatically reduced
- TNF-mediated phosphorylation of IκBα (immunoblot) [1]: completely abolished
- TNF-induced expression of COX-2 (COX-2 expression): inhibited TNF-induced expression of COX-2 in a dose dependent manner
